Source: article PMC12418703, “Avenanthramides and avenacosides as biomarkers of oat intake: a pharmacokinetic study of solid and liquid oat consumption under single and repeated dose conditions” (Nutrition Journal, 2025)
Where two headings read alike, the source gives them in different places.

How the values were obtained:
[1] = Plasma pharmacokinetics after a single dose of liquid or solid oat product (compartmental PK model); format: in vivo, humans; design: V/F: unit not given here; conditions: for Cmax / half-life / k el / Tmax: both sexes, oral; for Cmax / half-life / k el: human, plasma; for Cmax / half-life / k el / Tmax / ka / V/F / T1/2: single dose; for k el: elimination rate (Table 2), read-out: ke (converted); for Tmax: human plasma, derived from PK model; for V, population estimate (RSE%) / ka, population estimate (RSE%) / ke, population estimate (RSE%): Table S1 compartmental model; for ka: absorption rate (Table 2); for V/F: distribution volume over bioavailability
Source text: A non-blinded, randomized two-way crossover study with two different oat products (solid or liquid) was designed to investigate the AVA and AVE PK after a single dose and after repeated dosing at three different doses, for respective food (Fig. 2). Since this is the first study of its kind, it is impossible to make any formal calculation of the number of subjects needed to show meaningful differences in plasma biomarker concentrations, since the variation is unknown. However, similar studies aimed for BFI discovery and validation of dose-response have typically used 5–30 subjects. We therefore considered 23 individuals as a good compromise between feasibility and possibilities to assess variation in biomarker concentrations, estimate pharmacokinetic parameters, dose response and performing modelling with good precision. A scientist not involved in the study, conducted the randomization using the RAR method (RandomizeR package) in R software environment and provided lists with allocated treatment sequences. The study was conducted in two phases. In the first phase, blood samples were drawn from 11 men and 12 women for 24 h after consumption of a single dose of either a solid or a liquid oat product on-site. Breakfast and lunch were also provided on-site. A single dose of solid (62 g of oat flakes) or liquid (196 mL of oat drink) containing individual AVAs and AVEs shown in Table 1 were consumed, respectively. Blood plasma samples were drawn for 24 h (0 h, 0.25 h, 0.5 h, 0.75 h, 1 h, 1.5 h, 2 h, 3 h, 4 h, 5 h, 6 h, 7 h, 8 h, 24 h). After the 24 h, at the second phase of the study, the corresponding product was further consumed three times per day for four days at either a low, medium, or high intake dose (98, 196 and 392 mL for liquid oats and 31, 62 and 123 g for oat flakes with corresponding contents of AVAs and AVEs (Table 1) in a Latin square design. Therefore, a total number of 8 participants (2 males and 6 females) were randomized to the low dose, 9 participants (3 males and 6 females) for medium dose and 6 participants (3males and 3 females) for the high dose. Participants consumed the provided products at home and were instructed to follow their habitual diets with restriction on the consumption of oat products. A list of relevant foods was provided as a guide. The oat flakes were pre-portioned into individual bags and could be consumed without heating, mixed with yoghurt, cottage cheese, sour milk or any liquid. Participants were instructed to consume the full amount, including the liquid or food the oats were mixed with. Liquid oat products were weighed prior consumption, and they were to be consumed without any additional food. In all cases the time of oat intake was recorded in a food journal. On the fifth day of phase II, a fasting sample was drawn. Fecal samples were collected at baseline and at the end of phase II of the intervention. Between each study period, there was a wash-out period of eight days where participants consumed their habitual diet. After the washout, participants started with a single dose and repeated dosing for the other product in the same way as for the first. The participants were instructed to avoid foods containing oats during the last three days prior to the start of the study and during the last three days of the wash-out period. Compliance was assessed based on information provided in a compliance journal during the study weeks as well as through 2-day food records. The oat products used in the study were provided to the participants. The flakes for the single dose were consumed with water ad lib and for the repeated dose they could be mixed with water, yoghurt, milk, sour milk or cottage cheese with the condition that all the amount of the oat product is consumed. The oat drink was consumed without any other product.
All blood samples were collected into EDTA-coated tubes by a trained nurse. […]

[2] = test system: Feacalibacterium prausnitzii; experiment: Association of F. prausnitzii relative abundance at baseline with Cmax and AUC strata (logistic regression); design: species or system humans; conditions: liquid, solid, or combined; single dose phase I
Method: DNA was extracted from approximately 35 mg of each of the 451 fecal samples using the NucleoSpin Soil kit (Macherey-Nagel, 740780.250 M), following the manufacturer’s instructions. DNA yield was quantified using the Qubit 1X dsDNA Broad Range assay kit (Thermo Fisher Scientific, Q33266). For metagenomic shotgun sequencing, libraries were prepared with the MGIEasy Fast FS DNA Library Prep Set (MGI Tech Co., Ltd., 940-000030-00, Werheim, Germany), using 400 ng of DNA per sample. The library preparation process included DNA shearing for 12.5 min, followed by end repair, A-tailing, and magnetic bead-based cleanup. Adapter ligation and cleanup were then performed, followed by PCR amplification and magnetic bead-based size selection of the final library product. Library quality was assessed using the Qubit 1X dsDNA HS Assay Kit (Thermo Fisher Scientific, Q33231) and the Agilent High Sensitivity D1000 Assay Kit (Agilent Technologies, 5067–5584 and 5067–5585, Santa Clara, CA, USA). Pooled libraries were circularized, barcoded, and used as templates for DNA nanoball preparation. The nanoballs were then analyzed on the DNBSEQ-T7 platform (MGI Tech Co., Ltd.) using the DNBSEQ-T7RS High-throughput Sequencing Set (FCL PE150), according to the manufacturer’s guidelines.
Raw metagenomic reads underwent quality control to remove low-quality sequences, adapters, and contaminants using Fastp (version 0.23.2, default parameters). High-quality reads were filtered to exclude human reads (GRCh38_noalt_as) using Bowtie2 [38] (version 2.5.3). The quality-filtered reads were then aligned to the taxonomy database using MetaPhlAn (version 4.0.6, default parameters) to generate relative abundance profiles. For inclusion in the analysis, a species was required to be present in at least three samples.
For the seven metabolites AVE A, AVE B, AVA 2c, AVA 2f, AVA 2fd, AVA 2p, AVA 2pd analysed at phase I after the single dose of oat products, Cmax and area under the curve (AUC) were stratified based on less than the median or more or equal to the […]. Thereafter, for each metabolite, it was investigated whether the relative abundance of F. prausnitzii at baseline could predict the strata since this bacterium has previously been reported to be responsible for production of their dihydro-metabolites. Logistic regression with a binomial distribution and a logistic link function was used to separately analyze the liquid and solid products. When analyzing liquid and solid products together, a generalized linear mixed model with a binomial distribution and a logistic link function was used, with identity included as a random factor.

[3] = 62 g of oat flakes, solid oat product (62 g oat flakes)
[4] = 196 mL of oat drink, liquid oat product (196 mL oat drink)

Cmax ([1]; 62 g of oat flakes, solid) [nM] | half-life ([1]; 62 g of oat flakes, solid) [h] | k el ([1]; 62 g of oat flakes, solid) [s⁻¹] | Cmax ([1]; 196 mL of oat drink, liquid) [nM] | half-life ([1]; 196 mL of oat drink, liquid) [h] | k el ([1]; 196 mL of oat drink, liquid) [s⁻¹] | Tmax [1, 3] [h] | Tmax [1, 4] [h] | V, population estimate (RSE%) ([1]; liquid) | ka, population estimate (RSE%) ([1]; liquid) | ke, population estimate (RSE%) ([1]; liquid) | ka ([1]; liquid) | V/F ([1]; liquid) | V, population estimate (RSE%) ([1]; solid) | ka, population estimate (RSE%) ([1]; solid) | ke, population estimate (RSE%) ([1]; solid) | ka ([1]; solid) [h⁻¹] | V/F ([1]; solid) | association between F. prausnitzii abundance at baseline and Cmax and AUC [2] | T1/2 ([1]; liquid) | SMILES
4.91 ± 0.52 | 2.13 ± 0.16 | 9.17e-05 | 1.16 ± 0.12 | 1.58 ± 0.12 | 0.000122 | 1.37 ± 0.06 | 0.73 ± 0.03 | 500 (19) L | 5.9 (18) 1/h | 0.43 (17) 1/h | 6.0 ± 0.3^1 1/h | 430 ± 42^2 | 720 (22) L | 2.8 (10) 1/h | 0.31 (17) 1/h | 2.8 ± 0.16 | 698 ± 71 | no significant associations | – | O=C(/C=C/c1ccc(O)c(O)c1)Nc1ccc(O)cc1C(=O)O [AVA 2c]
2.1 ± 0.22 | 2.28 ± 0.18 | 8.33e-05 | 0.69 ± 0.07 | 3.2 | 6.11e-05 | 1.11 ± 0.05 | 0.98 ± 0.04 | 1600 (34) L | 4.8 (3) 1/h | – | 5.0 ± 0.3^2 1/h | 1641 ± 168^2 | 2600 (5) L | 3.8 (26) 1/h | – | 3.8 ± 0.21 | 2561 ± 262 | no significant associations | 3.19 ± 0.25^2 h | COc1cc(/C=C/C(=O)Nc2ccc(O)cc2C(=O)O)ccc1O [AVA 2f]
20 ± 2.12 | 1.42 ± 0.11 | 0.000136 | 4.94 ± 0.5 | 1.3 | 0.000144 | 1.91 ± 0.08 | 1.21 ± 0.05 | 113 (16) L | 2.8 (9) 1/h | 0.52 (10) 1/h | 2.8 ± 0.2^1 1/h | 111 ± 11^1 | 220 (22) L | 1.6 (10) 1/h | 0.44 (17) 1/h | 1.50 ± 0.08 | 250 ± 26 | no significant associations | 1.33 ± 0.10 h | O=C(/C=C/c1ccc(O)cc1)Nc1ccc(O)cc1C(=O)O [AVA 2p]
